Test results: US9878999B2, “Proteasome chymotrypsin-like inhibition using PI-1833 analogs” (H. Lee Moffitt Cancer Center and Research Institute, Inc., priority 2011, dated 2018)
Entries after “also recorded” stand apart in the source; their conditions may differ. Where two headings read alike, the source gives them in different places.

Key:
[1] = tested on: RPMI-8226; test: MTT assay, proliferation and viability; type: cell-based; conditions: Homo sapiens
[2] = tested on: HCT-116-p53^−/−; test: MTT assay, proliferation and viability; type: cell-based
[3] = tested on: RX7-397; test: MTT assay, proliferation and viability; type: cell-based; conditions: RX7-397, 96 h
[4] = tested on: proteasome substrates p27, Bax and IKB; test: Western blot, accumulation of proteasome substrates; type: cell-based
[5] = target: CT-L activity of purified 20S proteasome (Homo sapiens, UniProt P20618+P28074); test: in vitro CT-L activity of purified 20S proteasome; type: biochemical
[6] = tested on: PC3; test: MTT assay, proliferation and viability; type: cell-based; conditions: Homo sapiens, PC-3
[7] = tested on: DU-145; test: MTT assay, proliferation and viability; type: cell-based; conditions: Homo sapiens, DU-145, Bax^−/−
[8] = target: T1, T-L activity in MDA-MB-468 cells (Homo sapiens, UniProt Q99436); test: T-L activity in MDA-MB-468 cells; type: cell-based; conditions: MDA-MB-468, within 10 min
T1 construct: endogenous in cells; host or cells: MDA-MB-468

[9] = tested on: MDA-MB-468 and HCT-116 cells; test: Western blot for cleaved caspase-3 and cleaved PARP (apoptosis); type: cell-based, human; conditions: 48 h or 24 h
Description: FIG. 17 is a blot showing the apoptotic potential of PI-1833 and PI-1840. Exponentially growing human breast cancer cells MDA-MB-468 and colon cancer cells HCT-116 were treated with different concentrations of PI-1833 or PI-1840 for 48 h or 24 h, followed by WB analysis for cleaved caspase-3 and cleaved PARP.

[10] = target: T2, PGPH activity in MDA-MB-468 cells (Homo sapiens, UniProt P28072); test: PGPH activity in MDA-MB-468 cells; type: cell-based; conditions: MDA-MB-468, within 10 min
T2 construct: endogenous in cells; host or cells: MDA-MB-468

[11] = tested on: HCT-116-HKH2; test: MTT assay, proliferation and viability; type: cell-based; conditions: HCT-116-HKH2, K-Ras^−/−
[12] = tested on: LNCaP; test: MTT assay, proliferation and viability; type: cell-based; conditions: Homo sapiens, Bax^+/+
[13] = tested on: MDA-MB-468; test: MTT assay, proliferation and viability; type: cell-based; conditions: Homo sapiens, MDA-MB-468, WT K-Ras
[14] = target: T3, CT-L activity in human breast cancer MDA-MB-468 cells (Homo sapiens, UniProt P20618+P28074); test: whole cell CT-L activity in MDA-MB-468 cells; type: cell-based; conditions: MDA-MB-468; listed as PI-1840
T3 construct: endogenous in cells; host or cells: MDA-MB-468

[15] = tested on: MDA-MB-231; test: MTT assay, proliferation and viability; type: cell-based; conditions: Homo sapiens, MDA-MB-231, mut K-Ras
[16] = tested on: Colo357; test: MTT assay, proliferation and viability; type: cell-based; conditions: Homo sapiens, COLO357, 96 h
[17] = tested on: MCF-10A; test: MTT assay, proliferation and viability; type: cell-based; conditions: Homo sapiens, normal/immortalized, 72 h
[18] = tested on: HCT-116; test: MTT assay, proliferation and viability; type: cell-based; conditions: Homo sapiens, HCT-116, mut K-Ras
[19] = 72 h, read-out: 72 h (MTT assay)
[20] = 96 h, read-out: 96 h (MTT assay)
[21] = WT p53, 72 h, read-out: 72 h (MTT assay)
[22] = WT p53, 96 h, read-out: 96 h (MTT assay)

`CCCc1ccc(OCC(=O)N(Cc2nc(-c3cccnc3)no2)C(C)C)cc1` [11ad] showed an IC50 ([1]; RPMI-8226, 72 h, read-out: 72 h (MTT assay)) of 35.9 ± 11.2 µM, an IC50 ([1]; RPMI-8226, 96 h, read-out: 96 h (MTT assay)) of 34.7 µM and an IC50 [2, 19] of 45.9 ± 19.9 µM. The IC50 [2, 20] was 31.1 µM, the IC50 [3] was 56.9 µM and the “accumulation of proteasome substrates p27, Bax and IKB, in words” value [4] was “more potent at accumulating the proteasome substrates p27, Bax and IKB”. For the same molecule, the “fold improved CT-L activity” value ([5]; compared to the hit 1 (PI-1833)) was 20 fold, the IC50 ([5]; read-out: IC50, in vitro CT-L) was 0.032 µM and the IC50 ([6]; PC3, 72 h, read-out: 72 h (MTT assay)) was 92.7 µM. It also gave an IC50 ([6]; PC3, 96 h, read-out: 96 h (MTT assay)) of 62.5 µM, an IC50 [7, 19] of 123 ± 25.2 µM and an IC50 [7, 20] of 159 µM. For the same molecule, the “inhibition of T-L activity in cells, in words” value [8] was “not T-L or PGPH”, the “induction of apoptosis, in words” value [9] was “efficiently inducing apoptosis” and the “inhibition of PGPH activity in cells, in words” value [10] was “not T-L or PGPH”. The IC50 [11, 21] was 43 ± 9.73 µM, the IC50 [11, 22] was 12.8 µM and the IC50 [12, 19] was 49 ± 6.81 µM. The IC50 [12, 20] was 17.2 µM, the IC50 ([13]; mut p53, 72 h, read-out: 72 h (MTT assay)) was 25.4 ± 5.83 µM and the IC50 ([13]; mut p53, 96 h, read-out: 96 h (MTT assay)) was 11.6 µM. For the same molecule, the “inhibition of CT-L activity in cells, in words” value [14] was “inhibits CT-L; also recorded: more potent at inhibiting CT-L activity in human breast cancer”, the IC50 [15, 19] was 133 ± 21.6 µM and the IC50 [15, 20] was 106 µM. It also gave an IC50 [16] of 95.7 µM, an IC50 [17] of 63.1 ± 7.06 µM and an IC50 [18, 21] of 40.9 ± 15.8 µM. It also gave an IC50 [18, 22] of 35.3 µM.
